Measurements from USRE47428E1, “Modulators of methyl modifying enzymes, compositions and uses thereof” (Constellation Pharmaceuticals, Inc., priority 2013, dated 2019).
Where two headings read alike, the source gives them in different places.

How the values were obtained:
[1] = target: EZH2 (Homo sapiens, UniProt Q15910); assay: EZH2 assay: rPRC2 methyltransferase, 3H SAM FlashPlate; assay type: biochemical; conditions: 0.2 μM 3H SAM, 2 nM EZH2
Description: (§1) Assays were carried out by mixing rPRC2 together with biotinylated oligonucleosome substrates in the presence of the radio-labeled enzyme co-factor, S-adenosyl-L-methionine (^3H SAM) (Perkin Elmer) and monitoring the enzymatically mediated transfer of tritiated methyl groups from ^3H SAM to histone lysine residues. The amount of resulting tritiated methyl histone product was measured by first capturing the biotinylated oligonucleosomes in streptavidin (SAV) coated FlashPlates (Perkin Elmer), followed by a wash step to remove un-reacted ^3H SAM, and then counting on a TopCount NXT 384 well plate scintillation counter (Perkin Elmer). The final assay conditions for EZH2 were as follows: 50 mM Tris Buffer pH 8.5, 1 mM DTT, 69 μM Brij-35 detergent, 5.0 mM MgCl2, 0.1 mg/mL BSA, 0.2 μM ^3H SAM, 0.2 μM biotinylated oligonucleosomes, 3.6 μM H3K27me3 peptide and 2 nM EZH2.
(§2) A 12.5 μL volume of the HMT enzyme, H3K27me3 peptide and oligonucleosome substrate in assay buffer was added to each well of the assay plate using a Multidrop Combi (Thermo-Fisher). Compounds were pre-incubated with the enzyme for 20 min, followed by initiation of the methyltransferase reaction by addition of 12.5 μL of ^3H SAM in assay buffer (final volume=25 μL). The final concentrations of compounds ranged from a top default concentration of 80 μM down to 0.16 μM in ten 2-fold dilution steps. Reactions were carried out for 60 minutes and quenched with 20 μL per well of 1.96 mM SAH, 50 mM Tris pH 8.5, 200 mM EDTA. Stopped reactions were transferred to SAV coated Flash-plates (Perkin Elmer), incubated for 120 min, washed with a plate washer, and then read on the TopCount NXT (1.0 min/well) to measure the amount of methyl histone product formed during the reaction.

[2] = test system: H3K27me3 mark in HeLa cells; assay: H3K27me3 Alpha Hela Assay (AlphaLISA); assay type: cell-based; conditions: 72 hrs incubation
Description: H3K27me3 Alpha Hela Assay (AlphaLISA).
Ten different doses of each test compound (in a series of 3-fold dilutions) were plated in duplicate 384-well tissue culture treated plates (Catalog #781080; Greiner Bio One; Monroe, N.C.). Hela cells grown in culture were trypsinized and counted using a Countess® cell counter (Catalog #C10281; Life Technologies, Grand Island, N.Y.). Cell were diluted to 67,000 cells per mL in 10% DMEM (Catalog #10569-010 Life Technologies, Grand Island, N.Y.) and 15 μL (1,000 cells) were plated into each well using the Biotek MicroFlo™ Select Dispenser (BioTek Instruments, Inc. Vermont, USA),) of the 384-well plate. Plates were incubated at 37° C./5% CO2 for 72 hrs. One of the duplicate plates was processed for HeLa assay and the other for viability.
To the plate processed for AlphaLISA was added 5 μL per well Cell-Histone Lysis buffer (1×) (Catalog #AL009F1 Perkin Elmer; Waltham, Mass.) and the plate was incubated at RT for 30 minutes on a plate shaker with low speed (Model #4625-Q Thermo Scientific; Waltham, Mass.). Then, 10 μL per well Histone Extraction buffer (catalog #AL009F2; Perkin Elmer; Waltham, Mass.) was added and the plate further incubated at RT for 20 min on plate shaker with low speed. To each well was then added 10 μL per well of a 5× mix of anti-K27me3 acceptor beads plus Biotinylated anti-Histone H3 (C-ter) Antibody (diluted to 3 nM final) (Catalog #AL118 Perkin Elmer; Waltham, Mass.). Dilution of the acceptor beads and then anti-Histone H3 was with 1× Histone Detection buffer (Catalog #AL009F3 Perkin Elmer; Waltham, Mass.) which was produced diluted from the 10× stock provided. The plate was sealed with an aluminum plate sealer and incubated at 23° C. for 60 min. […] The plates were then read using an EnVision-Alpha Reader (model #2104 Perkin Elmer; Waltham, Mass.).
Data from both assays was analyzed using Assay Assistant (Constellation Pharmaceuticals In-house product) and Activity Base (IDBS Ltd, Surrey, UK) template. […] Readout of DMSO wells were used to normalize the data. […]

[3] = target: Y641N EZH2 (Homo sapiens, UniProt Q15910, Y641N); assay: Y641N EZH2 assay, H3K27Me2 oligonucleosomes as substrate; assay type: biochemical
Sequence of Y641N EZH2 (Q15910 whole entry Y641N): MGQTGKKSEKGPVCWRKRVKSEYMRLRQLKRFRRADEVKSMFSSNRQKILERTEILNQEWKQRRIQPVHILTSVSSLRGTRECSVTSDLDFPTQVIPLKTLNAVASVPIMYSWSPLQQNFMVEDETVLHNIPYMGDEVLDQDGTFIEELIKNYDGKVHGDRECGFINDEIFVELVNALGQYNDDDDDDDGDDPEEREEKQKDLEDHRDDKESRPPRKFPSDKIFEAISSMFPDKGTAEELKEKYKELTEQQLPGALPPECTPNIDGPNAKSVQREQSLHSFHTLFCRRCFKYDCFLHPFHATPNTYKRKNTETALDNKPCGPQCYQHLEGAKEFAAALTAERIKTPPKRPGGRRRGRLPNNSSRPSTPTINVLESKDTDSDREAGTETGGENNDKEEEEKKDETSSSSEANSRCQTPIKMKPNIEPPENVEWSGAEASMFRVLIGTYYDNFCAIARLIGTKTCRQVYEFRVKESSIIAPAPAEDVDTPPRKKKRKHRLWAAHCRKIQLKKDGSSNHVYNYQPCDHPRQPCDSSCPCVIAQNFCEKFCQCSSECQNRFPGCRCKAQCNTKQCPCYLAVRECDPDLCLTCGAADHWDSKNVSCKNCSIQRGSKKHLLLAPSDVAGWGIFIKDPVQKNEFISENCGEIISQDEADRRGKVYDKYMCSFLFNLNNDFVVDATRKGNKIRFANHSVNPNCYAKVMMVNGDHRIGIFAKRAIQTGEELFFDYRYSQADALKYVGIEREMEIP
Sequence of Y641N EZH2 (O75530 whole entry partner): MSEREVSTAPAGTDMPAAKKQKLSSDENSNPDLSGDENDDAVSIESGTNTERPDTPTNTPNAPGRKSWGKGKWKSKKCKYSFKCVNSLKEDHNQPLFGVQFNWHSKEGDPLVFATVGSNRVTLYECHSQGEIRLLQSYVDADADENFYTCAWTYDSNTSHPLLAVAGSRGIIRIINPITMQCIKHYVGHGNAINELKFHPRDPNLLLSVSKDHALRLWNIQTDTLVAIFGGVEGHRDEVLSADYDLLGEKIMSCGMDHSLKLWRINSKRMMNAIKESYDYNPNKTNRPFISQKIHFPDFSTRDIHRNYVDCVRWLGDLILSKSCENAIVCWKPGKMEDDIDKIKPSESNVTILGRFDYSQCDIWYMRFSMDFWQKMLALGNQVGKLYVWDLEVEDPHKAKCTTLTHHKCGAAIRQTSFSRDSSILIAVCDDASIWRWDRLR
Sequence of Y641N EZH2 (Q15022 whole entry partner): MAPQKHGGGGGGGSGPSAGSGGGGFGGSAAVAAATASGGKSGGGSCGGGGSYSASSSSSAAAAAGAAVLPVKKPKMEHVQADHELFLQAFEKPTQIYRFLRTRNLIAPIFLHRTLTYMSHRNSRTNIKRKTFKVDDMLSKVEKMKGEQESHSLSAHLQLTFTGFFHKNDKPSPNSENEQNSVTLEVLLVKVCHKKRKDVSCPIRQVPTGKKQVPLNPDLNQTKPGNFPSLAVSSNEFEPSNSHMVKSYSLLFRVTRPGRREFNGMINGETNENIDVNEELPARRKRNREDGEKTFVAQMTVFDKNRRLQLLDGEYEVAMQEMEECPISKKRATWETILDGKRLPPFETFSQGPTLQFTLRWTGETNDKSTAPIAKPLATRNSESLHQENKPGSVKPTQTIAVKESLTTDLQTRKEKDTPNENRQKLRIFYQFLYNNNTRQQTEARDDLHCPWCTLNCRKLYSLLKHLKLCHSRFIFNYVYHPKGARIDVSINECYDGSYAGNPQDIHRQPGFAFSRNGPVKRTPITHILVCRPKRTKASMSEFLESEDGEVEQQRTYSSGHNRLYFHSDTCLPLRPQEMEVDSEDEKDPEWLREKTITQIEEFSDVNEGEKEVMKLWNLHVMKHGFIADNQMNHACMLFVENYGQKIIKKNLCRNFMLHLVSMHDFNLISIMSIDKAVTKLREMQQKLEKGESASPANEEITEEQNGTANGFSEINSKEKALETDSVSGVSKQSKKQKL
Description: as §1, §2

[4] = test system: H3K27me3 mark in HeLa cells; assay: H3K27me3 MSD Hela Assay; assay type: cell-based
Description: Trypsinized HeLa cells were counted and diluted in 10% DMEM (Life Technologies, Cat. #10569) to 5000 cells/75 μL. Seventy-five μL of cells were place in each well of a 96-well flat-bottomed plate and incubated at 37° C. for 4 hours. Twenty-five μL of test compound (at various concentrations) was added to the cells and incubation continued at 37° C. for 96 hours. Media was then removed and the cells rinsed once with ice cold PBS. Forty μL of ice-cold MSD Buffer AT (10 mM HEPES, pH 7.9, 5 mM MgCl2, 0.25M sucrose, Benzonase (1:10000), 1% Triton X-100 supplemented with fresh 1× Protease Inhibitor cocktail and 1 mM 4-(2-Aminoethyl)benzenesulfonyl fluoride hydrochloride (AEBSF)) was added to each well and the plates placed on ice for 30 minutes. Ten μL of 5M NaCl was then added to each well and incubation on ice continued for another 15 minutes. The material in each well was suspended pipetting up and down and then transferred to a new 96 well plate. […]
The antibody mix was then removed and the wells washed with Blocker A. One hundred-fifty μL of freshly prepared 1×MSD Read Buffer (Meso-Scale Discovery; Cat #R927C-2) was then added to each well and the plates read on a MSD Sector 2400 Plate Reader.
Data was analyzed using Assay Assistant (Constellation Pharmaceuticals In-house product) and Activity Base (IDBS Ltd, Surrey, UK) template. […] Readout of DMSO wells were used to normalize the data. […]

Sequence of EZH2 (Q15910 whole entry): as the sequence (Q15910 whole entry Y641N) above, with N641Y counted along it
Sequence of EZH2 (O75530 whole entry partner): as the sequence (O75530 whole entry partner) above
Sequence of EZH2 (Q15022 whole entry partner): as the sequence (Q15022 whole entry partner) above

COc1cc(C)[nH]c(=O)c1CNC(=O)c1c(C)n(C(C)C2CCC(F)(F)CC2)c2ccccc12 (racemic) [Compound 304, (±)-1-(1-(4,4-difluorocyclohexyl)ethyl)-N-((4-methoxy-6-methyl-2-oxo-1,2-dihydropyridin-3-yl)methyl)-2-methyl-1H-indole-3-carboxamide]
IC50 ([1]; EZH2 IC50, rPRC2, biotinylated oligonucleosomes): < 100 nM
EC50 ([2]; Homo sapiens): < 400 nM
IC50 [3]: < 100 nM
EC50 ([4]; Homo sapiens): < 400 nM

CCS(=O)(=O)N1CCC(C(C)n2c(C)c(C(=O)NCc3c(OC)cc(C)[nH]c3=O)c3ccccc32)CC1 (single isomer, unassigned) [Compound 345, (R or S)-1-(1-(1-(ethylsulfonyl)piperidin-4-yl)ethyl)-N-((4-methoxy-6-methyl-2-oxo-1,2-dihydropyridin-3-yl)methyl)-2-methyl-1H-indole-3-carboxamide]
EC50 ([2]; Homo sapiens): < 400 nM

COc1cc(C)[nH]c(=O)c1CNC(=O)c1c(C)n(C(C)C2CCCNC2)c2ccccc12 (stereo not drawn) [Compound 315]
EC50 [4]: > 10000 nM

(R or S)-1-(1-(4-(isopropylsulfonyl)cyclohexyl)ethyl)-N-((4-methoxy-6-methyl-2-oxo-1,2-dihydropyridin-3-yl)methyl)-2-methyl-1H-indole-3-carboxamide [Compound 355]
IC50 ([1]; rPRC2, biotinylated oligonucleosomes, read-out: EZH2 IC50): < 100 nM
EC50 [2]: < 400 nM
IC50 ([3]; Y641N EZH2 mutant enzyme, H3K27Me2 oligonucleosomes, read-out: Y641N EZH2 IC50): < 100 nM
